Measurements taken from patent publication US20110039825A1, “LIGANDS OF ALPHA-ADRENOCEPTORS, DOPAMINE, HISTAMINE, IMIDAZOLINE AND SEROTONIN RECEPTORS AND THEIR USE” (Alla Chem, LLC, priority 2007, published 2011).

What was measured:
[1] = molecular target: T1, recombinant human 5-HT2B receptor (Homo sapiens, UniProt P41595); test: radioligand binding to serotonin receptor 5-HT2B ([3H] Lysergic acid diethylamide); conditions: 10 μM ligand
T1 construct: expressed in transfected cells; host or cells: CHO-K1
Description: Screening of the disclosed compounds for potential ability to interact with serotonin receptor 5-HT2A is carried out by method of radioligand binding. For this purpose membrane species are prepared from CHO-K1 cells comprising recombinant human 5-HT2B receptor by homogenization of recombinant cells in glass homogenizer with the subsequent separation of plasmatic membranes from cell nuclei, mitochondrias and cell wreckages by differential centrifugation. […] After incubation the samples are filtered in vacuo on glass-microfiber filters G/F (Millipor, USA), filters are washed three times with cold solution of medium and radioactivity is measured by scintillation counter MicroBeta 340 (Perkin Elmer, USA). […] Ketanserin is used as positive control. The tested compounds' binding to the receptor is determined by their ability to displace the radioligand and is expressed in percent of displacement (% I). Values of % I are calculated according to the following equation:
wherein: TA—is the overall radioactivity in the presence of radioligand only, CA—is the radioactivity in the presence of radioligand and tested compound and NA—is the radioactivity in the presence of radioligand and Serotonin (10 μM).

[2] = molecular target: T2, recombinant human 5-HT2C receptor (Homo sapiens, UniProt P28335); test: radioligand binding to serotonin receptor 5-HT2C ([3H] Mesulergine); conditions: for 5-HT2C % inhibition: 10 μM ligand
T2 construct: expressed in transfected cells; host or cells: CHO-K1
T2 sequence (P28335 33-458): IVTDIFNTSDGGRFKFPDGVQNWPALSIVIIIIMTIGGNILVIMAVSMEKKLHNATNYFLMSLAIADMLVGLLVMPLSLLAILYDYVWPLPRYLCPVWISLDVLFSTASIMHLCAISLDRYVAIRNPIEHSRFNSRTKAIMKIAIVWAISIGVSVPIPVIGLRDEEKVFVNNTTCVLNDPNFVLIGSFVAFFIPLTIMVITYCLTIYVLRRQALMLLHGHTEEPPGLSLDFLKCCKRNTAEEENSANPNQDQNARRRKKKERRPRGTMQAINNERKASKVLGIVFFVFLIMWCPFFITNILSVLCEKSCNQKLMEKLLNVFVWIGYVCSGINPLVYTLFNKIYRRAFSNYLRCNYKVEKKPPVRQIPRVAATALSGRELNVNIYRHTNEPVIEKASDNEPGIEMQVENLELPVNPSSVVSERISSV
Description: J. Neurochem. 69: 1449-1458, 1997]. […] SB242084 is used as positive control.

recombinant human 5-HT1A = molecular target: T3, recombinant human 5-HT1A (Homo sapiens, UniProt P08908); test: radioligand binding to serotonin receptor 5-HT1A ([3H] 8-OH-DPAT); conditions: ligand concentration 1 μM
T3 construct: expressed in transfected cells; host or cells: CHO
T3 sequence (P08908 1-422): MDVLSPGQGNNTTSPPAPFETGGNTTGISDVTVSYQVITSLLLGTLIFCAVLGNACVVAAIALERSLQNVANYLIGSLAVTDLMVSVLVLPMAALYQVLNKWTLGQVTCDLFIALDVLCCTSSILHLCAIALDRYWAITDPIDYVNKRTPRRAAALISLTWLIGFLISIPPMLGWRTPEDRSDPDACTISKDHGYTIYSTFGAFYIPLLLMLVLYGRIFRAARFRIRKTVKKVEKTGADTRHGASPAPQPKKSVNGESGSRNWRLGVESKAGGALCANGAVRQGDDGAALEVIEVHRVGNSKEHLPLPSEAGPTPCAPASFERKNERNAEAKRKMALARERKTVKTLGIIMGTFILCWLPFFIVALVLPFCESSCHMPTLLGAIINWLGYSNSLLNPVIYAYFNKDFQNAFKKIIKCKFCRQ
Description: J Pharmacol Exp Ther. 306(1): 301-309, 2003]. […] Metergoline is used as positive control.

human α2A receptor = molecular target: T4, human α2A receptor (Homo sapiens, UniProt P08913); test: radioligand binding to adrenergic receptor α2A ([3H] MK-912); conditions: 10 μM ligand
T4 construct: expressed in transfected cells; host or cells: Sf9
T4 sequence (P08913 1-465): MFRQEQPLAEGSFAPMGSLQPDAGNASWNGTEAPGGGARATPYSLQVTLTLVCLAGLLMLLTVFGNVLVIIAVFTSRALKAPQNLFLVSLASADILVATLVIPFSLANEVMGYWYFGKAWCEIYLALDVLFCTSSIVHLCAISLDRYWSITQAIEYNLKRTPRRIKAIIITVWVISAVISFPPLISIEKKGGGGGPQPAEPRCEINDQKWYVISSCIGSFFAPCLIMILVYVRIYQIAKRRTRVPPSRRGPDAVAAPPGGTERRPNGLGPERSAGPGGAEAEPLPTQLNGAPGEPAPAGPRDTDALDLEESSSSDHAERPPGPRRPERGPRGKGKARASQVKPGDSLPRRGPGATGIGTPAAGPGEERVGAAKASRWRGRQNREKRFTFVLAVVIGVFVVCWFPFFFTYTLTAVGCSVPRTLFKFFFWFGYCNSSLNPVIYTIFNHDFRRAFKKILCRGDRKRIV
Description: J Pharmacol ExpTher. […] Yohimbine is used as positive control.

[3] = molecular target: T5, recombinant human 5-HT6 receptor (Homo sapiens, UniProt P50406); test: radioligand binding to serotonin receptor 5-HT6 ([3H] Lysergic acid diethylamide); conditions: ligand concentration 1 μM; read-out: 5-HT6 % inhibition
T5 construct: expressed in transfected cells; host or cells: HeLa
Description: Mol. Pharmacol. 43:320-327, 1993]. […] Methiothepin is used as positive control.

T1 sequence (P41595 whole entry): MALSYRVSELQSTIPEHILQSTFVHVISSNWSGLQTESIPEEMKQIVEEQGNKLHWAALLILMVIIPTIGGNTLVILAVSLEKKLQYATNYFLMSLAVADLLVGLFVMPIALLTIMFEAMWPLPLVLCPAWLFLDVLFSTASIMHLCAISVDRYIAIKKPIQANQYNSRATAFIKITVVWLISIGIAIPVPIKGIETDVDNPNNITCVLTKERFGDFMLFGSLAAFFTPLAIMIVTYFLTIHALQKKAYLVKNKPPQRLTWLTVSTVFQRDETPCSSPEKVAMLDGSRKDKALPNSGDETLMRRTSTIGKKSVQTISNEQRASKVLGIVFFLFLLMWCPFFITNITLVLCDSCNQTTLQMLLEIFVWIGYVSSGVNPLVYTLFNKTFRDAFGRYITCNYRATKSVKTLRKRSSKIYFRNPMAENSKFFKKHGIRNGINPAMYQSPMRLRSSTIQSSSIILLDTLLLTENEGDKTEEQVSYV
T5 sequence (P50406 whole entry): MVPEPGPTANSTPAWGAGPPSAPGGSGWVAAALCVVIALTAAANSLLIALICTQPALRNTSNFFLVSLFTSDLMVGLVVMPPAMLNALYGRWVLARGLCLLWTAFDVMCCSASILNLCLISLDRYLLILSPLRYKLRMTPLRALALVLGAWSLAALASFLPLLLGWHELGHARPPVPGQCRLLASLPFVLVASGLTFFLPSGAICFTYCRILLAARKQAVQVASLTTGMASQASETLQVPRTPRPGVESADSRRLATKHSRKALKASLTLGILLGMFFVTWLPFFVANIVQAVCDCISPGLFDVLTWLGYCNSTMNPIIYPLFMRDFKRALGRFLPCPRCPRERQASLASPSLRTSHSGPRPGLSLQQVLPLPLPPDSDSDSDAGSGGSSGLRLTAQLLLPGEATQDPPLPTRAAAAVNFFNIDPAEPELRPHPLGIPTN

Row | Compound | 5-HT2B % inhibition [1] [%] | 5-HT2C % inhibition [2] [%] | inhibition at 1 µM (recombinant human 5-HT1A) [%] | α-Adrenoceptor α2A, % inhibition (human α2A receptor) [%] | inhibition at 1 µM ([2]; ligand concentration 1 μM) [%] | inhibition at 1 µM [3] [%]
1 | CN1CCc2c(c3cc(F)ccc3n2C#Cc2ccccc2)C1 [1.1(2)] | 92 | 100 |  |  |  | 
2 | CN1CCc2c(c3cc(F)ccc3n2CC(O)c2ccccc2)C1 (centres unmarked) [1.1.2(1-9)] | 50 | 89 |  |  |  | 
3 | Cc1ccc2c(c1)c1c(n2CC(O)c2ccccc2)CCN(C)C1 (centres unmarked) [1.1.2(1-10), 2,8-dimethyl-5-[(2-phenyl-2-hydroxy)ethyl]-1,2,3,4-tetrahydro-1H-pyrido[4,3-b]indole] | 79 | 96 |  |  |  | 
4 | Cc1ccc(CCn2c3c(c4cc(F)ccc42)CN(C)CCC3)cn1 [1.2.2(4-2)•2HCl] |  |  | 31 |  |  | 
5 | Cc1ccc2c(c1)c1c(n2CCc2ccncc2)CCCN(C)C1 [1.2.2(5-2)] |  |  | 13 | 74 | 92 | 84
